Measured values reported in patent publication US11541055B2, “Inhibitors of human immunodeficiency virus replication” (ViiV Healthcare UK (No. 5) LIMITED, priority 2018, dated 2023).

Key:
[1] = Compound cytotoxicity, XTT-based colorimetric assay; type: cell-based; conditions: human; uninfected MT2 cells, day 4, XTT
Procedure, shortened: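 Run under the antiviral-assay protocol but without virus. Viability was read on day 4 and CC50 values were derived from the readout.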

[2] = system: recombinant NL4-3 virus (Renilla luciferase) in MT-2 cells; experiment: HIV cell culture assay (antiviral activity, luciferase readout); type: cell-based; conditions: Renilla, NL43
Procedure, shortened: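 MT-2 cells were infected with recombinant NL4-3 virus carrying Renilla luciferase in place of part of nef. Cells were cultured 4–5 days with serially diluted compound, and luciferase was measured with a live-cell substrate. EC50 was calculated from the median effect equation.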

| Compound | CC50 at 4 days [1] [nM] | EC50 [2] [nM] |
| --- | --- | --- |
| Cc1ncc(F)c(-c2ccc3c(=O)n(-c4ccc(Cl)c5c(NS(C)(=O)=O)nn(C)c45)c([C@H](Cc4cc(F)cc(F)c4)NC(=O)Cn4nc(C(F)F)c5c4C(F)(F)[C@@H]4C[C@H]54)nc3c2)n1 (atropisomer, axis not shown; (P)) [Example 64, N—((S)-1-((3P)-3-(4-chloro-1-methyl-3-(methylsulfonamido)-1H-indazol-7-yl)-7-(5-fluoro-2-methylpyrimidin-4-yl)-4-oxo-3,4-dihydroquinazolin-2-yl)-2-(3,5-difluorophenyl)ethyl)-2-((3bS,4aR)-3-(difluoromethyl)-5,5-difluoro-3b,4,4a,5-tetrahydro-1H-cyclopropa[3,4]cyclopenta[1,2-c]pyrazol-1-yl)acetamide] | > 500 | 0.093 |
| Cc1ncncc1-c1ccc2c(=O)n(-c3ccc(Cl)c4c(NS(C)(=O)=O)nn(C)c34)c([C@H](Cc3cc(F)cc(F)c3)NC(=O)Cn3nc(C(F)F)c4c3C(F)(F)[C@@H]3C[C@H]43)nc2c1 (atropisomer, axis not shown; (P)) [Example 42, N—((S)-1-((3P)-3-(4-chloro-1-methyl-3-(methylsulfonamido)-1H-indazol-7-yl)-7-(4-methylpyrimidin-5-yl)-4-oxo-3,4-dihydroquinazolin-2-yl)-2-(3,5-difluorophenyl)ethyl)-2-((3bS,4aR)-3-(difluoromethyl)-5,5-difluoro-3b,4,4a,5-tetrahydro-1H-cyclopropa[3,4]cyclopenta[1,2-c]pyrazol-1-yl)acetamide] | > 500 | 0.074 |
| CS(=O)(=O)Nc1nn(CC(F)F)c2c(-n3c([C@H](Cc4cc(F)cc(F)c4)NC(=O)Cn4nc(C(F)F)c5c4C(F)(F)[C@@H]4C[C@H]54)nc4cc(-c5cccnn5)ccc4c3=O)ccc(Cl)c12 (atropisomer, axis not shown) [Example 135, N-[(1S)-1-{3-[4-chloro-1-(2,2-difluoroethyl)-3-methanesulfonamido-1H-indazol-7-yl]-4-oxo-7-(pyridazin-3-yl)-3,4-dihydroquinazolin-2-yl}-2-(3,5-difluorophenyl)ethyl]-2-[(2S,4R)-9-(difluoromethyl)-5,5-difluoro-7,8-diazatricyclo[4.3.0.0^2,^4]nona-1(6),8-dien-7-yl]acetamide] | > 500 | 0.054 |
| CS(=O)(=O)Nc1nn(CC(F)(F)F)c2c(-n3c([C@H](Cc4cc(F)cc(F)c4)NC(=O)Cn4nc(C(F)F)c5c4C(F)(F)[C@@H]4C[C@H]54)nc4cc(-c5ncccc5S(C)(=O)=O)ccc4c3=O)ccc(Cl)c12 (atropisomer, axis not shown) [Example 112] | > 500 | 0.075 |
| CCc1ncncc1-c1ccc2c(=O)n(-c3ccc(Cl)c4c(NS(C)(=O)=O)nn(C)c34)c([C@H](Cc3cc(F)cc(F)c3)NC(=O)Cn3nc(C(F)F)c4c3C(F)(F)[C@@H]3C[C@H]43)nc2c1 (atropisomer, axis not shown; (P)) [Example 60, N—((S)-1-((3P)-3-(4-chloro-1-methyl-3-(methylsulfonamido)-1H-indazol-7-yl)-7-(4-ethylpyrimidin-5-yl)-4-oxo-3,4-dihydroquinazolin-2-yl)-2-(3,5-difluorophenyl)ethyl)-2-((3bS,4aR)-3-(difluoromethyl)-5,5-difluoro-3b,4,4a,5-tetrahydro-1H-cyclopropa[3,4]cyclopenta[1,2-c]pyrazol-1-yl)acetamide] | > 500 | 0.077 |
| Cn1nc(NS(C)(=O)=O)c2c(Cl)ccc(-n3c([C@H](Cc4cc(F)cc(F)c4)NC(=O)Cn4nc(C(F)F)c5c4C(F)(F)[C@@H]4C[C@H]54)nc4cc(-c5ccnc(C6CC6)n5)ccc4c3=O)c21 (atropisomer, axis not shown; (P)) [Example 78, N—((S)-1-((3P)-3-(4-chloro-1-methyl-3-(methylsulfonamido)-1H-indazol-7-yl)-7-(2-cyclopropylpyrimidin-4-yl)-4-oxo-3,4-dihydroquinazolin-2-yl)-2-(3,5-difluorophenyl)ethyl)-2-((3bS,4aR)-3-(difluoromethyl)-5,5-difluoro-3b,4,4a,5-tetrahydro-1H-cyclopropa[3,4]cyclopenta[1,2-c]pyrazol-1-yl)acetamide] | > 500 | 0.16 |
| CC(C)(C)S(=O)(=O)c1ccccc1-c1ccc2c(=O)n(-c3ccc(Cl)c4c(NS(C)(=O)=O)nn(CC(F)F)c34)c([C@H](Cc3cc(F)cc(F)c3)NC(=O)Cn3nc(C(F)F)c4c3C(F)(F)[C@@H]3C[C@H]43)nc2c1 (atropisomer, axis not shown) [Example 130] | > 500 | 0.13 |
| CC(C)c1cccc(-c2ccc3c(=O)n(-c4ccc(Cl)c5c(NS(C)(=O)=O)nn(C)c45)c([C@H](Cc4cc(F)cc(F)c4)NC(=O)Cn4nc(C(F)F)c5c4C(F)(F)[C@@H]4C[C@H]54)nc3c2)n1 (atropisomer, axis not shown; (P)) [Example 46, N—((S)-1-((3P)-3-(4-chloro-1-methyl-3-(methylsulfonamido)-1H-indazol-7-yl)-7-(6-isopropylpyridin-2-yl)-4-oxo-3,4-dihydroquinazolin-2-yl)-2-(3,5-difluorophenyl)ethyl)-2-((3bS,4aR)-3-(difluoromethyl)-5,5-difluoro-3b,4,4a,5-tetrahydro-1H-cyclopropa[3,4]cyclopenta[1,2-c]pyrazol-1-yl)acetamide] | > 500 | 0.23 |
| Cn1nc(NS(C)(=O)=O)c2c(Cl)ccc(-n3c([C@H](Cc4cc(F)cc(F)c4)NC(=O)Cn4nc(C(F)F)c5c4C(F)(F)[C@@H]4C[C@H]54)nc4cc(-c5ccnnc5)ccc4c3=O)c21 (atropisomer, axis not shown; (P)) [Example 31, N—((S)-1-((3P)-3-(4-chloro-1-methyl-3-(methylsulfonamido)-1H-indazol-7-yl)-4-oxo-7-(pyridazin-4-yl)-3,4-dihydroquinazolin-2-yl)-2-(3,5-difluorophenyl)ethyl)-2-((3bS,4aR)-3-(difluoromethyl)-5,5-difluoro-3b,4,4a,5-tetrahydro-1H-cyclopropa[3,4]cyclopenta[1,2-c]pyrazol-1-yl)acetamide] | > 500 | 0.29 |
| Cn1nc(NS(C)(=O)=O)c2c(Cl)ccc(-n3c([C@H](Cc4cc(F)cc(F)c4)NC(=O)Cn4nc(C(F)F)c5c4C(F)(F)[C@@H]4C[C@H]54)nc4cc(-c5ccccc5C(F)F)ccc4c3=O)c21 (atropisomer, axis not shown; (P)) [Example 12, N—((S)-1-((3P)-3-(4-chloro-1-methyl-3-(methylsulfonamido)-1H-indazol-7-yl)-7-(2-(difluoromethyl)phenyl)-4-oxo-3,4-dihydroquinazolin-2-yl)-2-(3,5-difluorophenyl)ethyl)-2-((3bS,4aR)-3-(difluoromethyl)-5,5-difluoro-3b,4,4a,5-tetrahydro-1H-cyclopropa[3,4]cyclopenta[1,2-c]pyrazol-1-yl)acetamide] | > 500 | 0.37 |
| CCc1ccnc(-c2ccc3c(=O)n(-c4ccc(Cl)c5c(NS(C)(=O)=O)nn(CC(F)(F)F)c45)c([C@H](Cc4cc(F)cc(F)c4)NC(=O)Cn4nc(C(F)F)c5c4C(F)(F)[C@@H]4C[C@H]54)nc3c2)n1 (atropisomer, axis not shown) [Example 111, N-[(1S)-1-{3-[4-chloro-3-methanesulfonamido-1-(2,2,2-trifluoroethyl)-1H-indazol-7-yl]-7-(4-ethylpyrimidin-2-yl)-4-oxo-3,4-dihydroquinazolin-2-yl}-2-(3,5-difluorophenyl)ethyl]-2-[(2S,4R)-9-(difluoromethyl)-5,5-difluoro-7,8-diazatricyclo[4.3.0.0^2,^4]nona-1(6),8-dien-7-yl]acetamide] | > 500 | 0.11 |
| COc1nc2ccccc2nc1-c1ccc2c(=O)n(-c3ccc(Cl)c4c(NS(C)(=O)=O)nn(C)c34)c([C@H](Cc3cc(F)cc(F)c3)NC(=O)Cn3nc(C(F)F)c4c3C(F)(F)[C@@H]3C[C@H]43)nc2c1 (atropisomer, axis not shown; (P)) [Example 19, N—((S)-1-((3P)-3-(4-chloro-1-methyl-3-(methylsulfonamido)-1H-indazol-7-yl)-7-(3-methoxyquinoxalin-2-yl)-4-oxo-3,4-dihydroquinazolin-2-yl)-2-(3,5-difluorophenyl)ethyl)-2-((3bS,4aR)-3-(difluoromethyl)-5,5-difluoro-3b,4,4a,5-tetrahydro-1H-cyclopropa[3,4]cyclopenta[1,2-c]pyrazol-1-yl)acetamide] | > 500 | 5.5 |
| CS(=O)(=O)Nc1nn(CC(F)(F)F)c2c(-n3c([C@H](Cc4cc(F)cc(F)c4)NC(=O)Cn4nc(C(F)F)c5c4C(F)(F)[C@@H]4C[C@H]54)nc4cc(-c5nccc(C(F)(F)F)n5)ccc4c3=O)ccc(Cl)c12 (atropisomer, axis not shown) [Example 102] | > 500 | 0.13 |
| CC(C)c1nccc(-c2ccc3c(=O)n(-c4ccc(Cl)c5c(NS(=O)(=O)C6CC6)nn(CC(F)F)c45)c([C@H](Cc4cc(F)cc(F)c4)NC(=O)Cn4nc(C(F)F)c5c4C(F)(F)[C@@H]4C[C@H]54)nc3c2)n1 (atropisomer, axis not shown; (P)) [Example 91, N—((S)-1-((3P)-3-(4-chloro-3-(cyclopropanesulfonamido)-1-(2,2-difluoroethyl)-1H-indazol-7-yl)-7-(2-isopropylpyrimidin-4-yl)-4-oxo-3,4-dihydroquinazolin-2-yl)-2-(3,5-difluorophenyl)ethyl)-2-((3bS,4aR)-3-(difluoromethyl)-5,5-difluoro-3b,4,4a,5-tetrahydro-1H-cyclopropa[3,4]cyclopenta[1,2-c]pyrazol-1-yl)acetamide] | > 500 | 0.19 |
